Data from patent US4194009A, “Aryloxyphenylpropylamines for obtaining a psychotropic effect” (Eli Lilly and Company, priority 1976, dated 1980).

Key:
anesthetized cats = experiment: electrocardiogram (QRS complex) in anesthetized cats; conditions: intravenous injection
rats = experiment: prevention of brain serotonin depletion caused by 4-chloroamphetamine; assay type: in vivo, rat; conditions: in words
Description: Following this injection, the protecting drug was injected at a dose of 15 mg./kg. of rat-weight intraperitoneally and determinations of brain serotonin levels were carried out 4 hours later.

mice [1] = experiment: apomorphine hypothermia antagonism test; assay type: in vivo; conditions: for antagonism of apomorphine hypothermia: in words
Description: (§1) The apomorphine hypothermia antagonism test is carried out as follows: mice are injected with a dose of apomorphine known to reduce body temperature approximately 4° C. The compound under test is injected 1/2 hour before the injection of the apomorphine and the temperatures measured 1/2 hour after injection. The degree of antagonism is expressed as a percent reduction (as compared with controls) of the temperature decrease produced by the injection of the apomorphine. The reserpine hypothermia reversal test is carried out as follows: groups of mice are injected with reserpine and 16.5 hours later are injected intraperitoneally with graded doses of the drug, a different dose level being given to each group of mice. Temperatures are measured at 1 hour after injection of the drug under test and again the effectiveness of the drug is expressed as a percentage decrease in the hypothermia induced by the injection of reserpine as compared with the control group. In the tables which follow, Table 4 gives the results in the apomorphine antagonism and reserpine reversal hypothermia tests for the secondary amines of this invention. In the table, the first column gives the substituent attached to the oxygen atom at the 3 position of the propylamine chain; columns 2 to 4 the percent antagonism against apomorphine hypothermia at dose levels of 0.3, 1 and 3 mg./kg. and columns 5-7 the percent reversal of reserpine hypothermia at the same dose levels.

mice [2] = experiment: reserpine hypothermia reversal test; assay type: in vivo; conditions: for reversal of reserpine hypothermia: in words
Description: as §1

isolated muscle strips [3] = experiment: antihistaminic effect in isolated muscle strips; assay type: cell-based
isolated muscle strips [4] = experiment: antiserotonin effect in isolated muscle strips; assay type: cell-based
isolated muscle strips [5] = experiment: anticholinergic effect in isolated muscle strips; assay type: cell-based
pigeons = experiment: operant behavior, fixed-ratio, fixed interval schedule in pigeons; assay type: in vivo
[6] = test system: dopamine uptake by synaptosomes from rat brain; experiment: blockage of dopamine uptake by synaptosomes from rat brain; assay type: biochemical
Text: (§2) This blockade is shown both in vitro with radioactive labelled compounds to determine the amount of monoamine uptake by synaptosomes from rat brain, and in vivo by a variety of methods. Among the physiologically active monoamines whose uptake is blocked by the compounds of this invention are included serotonin, norepinephrine and dopamine (3,4-dihydroxyphenylethylamine). […] Tables 1 and 2 which follow set forth the results of some of the in vitro determinations of the blockage of monoamine uptake by the compounds of this invention. In the tables, column 1 gives the R substituent on the 3-phenylpropylamine and columns 2-4, the concentration in micrograms per ml. that blocks the uptake of a particular amine by 50 percent for the amines--norephinephrine, serotonin, and dopamine. At the head of each column is given the concentration of the particular monoamine used in the experiment.

[7] = test system: norepinephrine uptake by synaptosomes from rat brain; experiment: blockage of norepinephrine uptake by synaptosomes from rat brain; assay type: biochemical
Text: as §2

[8] = prevention of brain monoamine depletion caused by α-ethyl-4-methyl-m-tyramine; assay type: in vivo; conditions: in words
[9] = test system: serotonin uptake by synaptosomes from rat brain; experiment: blockage of serotonin uptake by synaptosomes from rat brain; assay type: biochemical; conditions: Table 1, serotonin 0.1 μM
Text: In the tables, column 1 gives the R substituent on the 3-phenylpropylamine and columns 2-4, the concentration in micrograms per ml. that blocks the uptake of a particular amine by 50 percent for the amines--norephinephrine, serotonin, and dopamine. At the head of each column is given the concentration of the particular monoamine used in the experiment.

[10] = Table 1, norepinephrine 0.48 μM
[11] = Table 5, mice, 3 mg./kg. intraperitoneally
[12] = Table 5, mice, 10 mg./kg. intraperitoneally

COc1ccccc1OC(CCN)c1ccccc1 (stereo not shown) [3-(o-Methoxyphenoxy)-3-phenylpropylamine, 3-(o-methoxyphenoxy)-3-phenylpropylamine]
widening of the QRS complex of the electrocardiogram (anesthetized cats): affects the electrocardiogram similarly, but at far higher doses

NCCC(Oc1ccc(C(F)(F)F)cc1)c1ccccc1.O=C(O)C(=O)O (stereo not shown) [3-(p-trifluoromethylphenoxy)-3-phenylpropylamine oxalate]
prevention of serotonin depletion caused by 4-chloroamphetamine (rats): gave similar results

CN(C)CCC=C1c2ccccc2CCc2ccccc21 [amitriptyline, reference compound]
widening of the QRS complex of the electrocardiogram (anesthetized cats): causes a widening of the QRS complex | antagonism of apomorphine hypothermia (mice [1]): active | reversal of reserpine hypothermia (mice [2]): active

CNCCCN1c2ccccc2CCc2ccccc21 [desmethylimipramine]
antihistaminic potency relative to N-methyl 3-(o-methoxyphenoxy)-3-phenylpropylamine (isolated muscle strips [3]): 150 times | antiserotonin potency relative to N-methyl 3-(o-methoxyphenoxy)-3-phenylpropylamine (isolated muscle strips [4]): three times more potent | antagonism of apomorphine hypothermia (mice [1]): active | reversal of reserpine hypothermia (mice [2]): active | anticholinergic potency relative to N-methyl 3-(o-methoxyphenoxy)-3-phenylpropylamine (isolated muscle strips [5]): 150 times

CNCCC(Oc1ccccc1OC)c1ccccc1 (stereo not shown) [o-anisyl, N-methyl 3-(o-methoxyphenoxy)-3-phenylpropylamine]
persistence of the effect on response rates (pigeons): more than 24 hours

CNCCC(Oc1ccc(C(F)(F)F)cc1)c1ccccc1 (stereo not shown) [p-trifluoromethylpenyl, N-methyl 3-(p-trifluoromethylphenoxy)-3-phenylpropylamine]
Concentration in mcg./ml. that blocks 50% of amine uptake, Dopamine ([6]; Table 2, dopamine 0.2 μM): > 100 µg/mL | prevention of serotonin depletion caused by 4-chloroamphetamine (rats): prevented the depletion of serotonin | Concentration in mcg./ml. that blocks 50% of amine uptake, Norepinephrine ([7]; Table 2, norepinephrine 0.48 μM): 20 µg/mL | depletion of norepinephrine by α-ethyl-4-methyl-m-tyramine [8]: not the depletion of norepinephrine | depletion of serotonin in the brain by α-ethyl-4-methyl-m-tyramine [8]: prevented the depletion of serotonin in the brain

CN(C)CCC(Oc1ccc(C(F)(F)F)cc1)c1ccccc1 (stereo not shown) [p-trifluoromethylphenyl, N,N-dimethyl 3-(p-trifluoromethylphenoxy)-3-phenylpropylamine]
Concentration in mcg./ml. that blocks 50% of amine uptake, Dopamine ([6]; Table 1, dopamine 0.2 μM): > 100 µg/mL | Concentration in mcg./ml. that blocks 50% of amine uptake, Serotonin [9]: .16 µg/mL | prevention of serotonin depletion caused by 4-chloroamphetamine (rats): gave similar results | Concentration in mcg./ml. that blocks 50% of amine uptake, Norepinephrine [7, 10]: 70 µg/mL | inhibition in vivo at 1 mg/kg (mice [1]; Mus musculus, Table 4, mice, 1 mg./kg., read-out: Percent Antagonism Apomorphine Pre-30 min.): 11% | inhibition in vivo at 3 mg/kg (mice [1]; Mus musculus, Table 4, mice, 3 mg./kg., read-out: Percent Antagonism Apomorphine Pre-30 min.): 25% | inhibition in vivo at 3 mg/kg (mice [1]; Mus musculus, Table 5, mice, 3 mg./kg., read-out: Percent Antagonism Apomorphine Pre-30 min.): 24% | inhibition in vivo at 3 mg/kg (mice [2]; Mus musculus, ip, 1 h, Table 5, mice, 3 mg./kg. intraperitoneally, read-out: Percent Antagonism Reserpine Post-60 min.): 20%

CN(C)CCC(Oc1ccccc1)c1ccccc1 (stereo not shown) [phenyl]
Concentration in mcg./ml. that blocks 50% of amine uptake, Dopamine ([6]; Table 1, dopamine 0.2 μM): .3 µg/mL | Concentration in mcg./ml. that blocks 50% of amine uptake, Serotonin [9]: .6 µg/mL | Concentration in mcg./ml. that blocks 50% of amine uptake, Norepinephrine [7, 10]: 1 µg/mL | Percent Antagonism Apomorphine Pre-30 min. (mice [1]; Table 5, mice, 3 mg./kg.): 3% | Percent Antagonism Apomorphine Pre-30 min. (mice [1]; Table 5, mice, 10 mg./kg.): 54% | Percent Antagonism Reserpine Post-60 min. (mice [2]; [11]): 20% | Percent Antagonism Reserpine Post-60 min. (mice [2]; [12]): 49%

CN(C)CCC(Oc1cccc2ccccc12)c1ccccc1 (stereo not drawn) [α-naphthyl, N,N-dimethyl 3-(α-naphthyloxy)-3-phenylpropylamine]
Concentration in mcg./ml. that blocks 50% of amine uptake, Dopamine ([6]; Table 1, dopamine 0.2 μM): 2.5 µg/mL | Concentration in mcg./ml. that blocks 50% of amine uptake, Serotonin [9]: .03 µg/mL | Concentration in mcg./ml. that blocks 50% of amine uptake, Norepinephrine [7, 10]: 3 µg/mL | Percent Antagonism Apomorphine Pre-30 min. (mice [1]; Table 5, mice, 1 mg./kg.): -17% | Percent Antagonism Apomorphine Pre-30 min. (mice [1]; Table 5, mice, 3 mg./kg.): -10% | Percent Antagonism Apomorphine Pre-30 min. (mice [1]; Table 5, mice, 10 mg./kg.): -7% | Percent Antagonism Reserpine Post-60 min. (mice [2]; Table 5, mice, 1 mg./kg. intraperitoneally): 15% | Percent Antagonism Reserpine Post-60 min. (mice [2]; [11]): 4% | Percent Antagonism Reserpine Post-60 min. (mice [2]; [12]): 15%
